Data reported in US6455540B1, “Methods of use of quinolone compounds against anaerobic pathogenic bacteria” (priority 1999, dated 2002).
≈ marks a conversion by molar mass, not a printed value.

Key:
Test in all cases: Agar dilution MIC
[1] = system: Actinomyces odontolyticus; assay type: cell-based; details: Schaalia odontolytica, 10 isolates
Actinomyces israelii = assay type: cell-based; details: 6 isolates
[2] = system: Anaerobiospirillum thomasii; assay type: cell-based; details: 13 isolates
[3] = system: Anaerobiospirillum succiniciproducens; assay type: cell-based; details: 3 isolates
Bacteroides gracilis = assay type: cell-based, Bacteroides gracilis (Campylobacter gracilis); details: Campylobacter gracilis, 11 isolates
Bacteroides tectum = assay type: cell-based; details: Bacteroides pyogenes, 22 isolates
Bacteroides ureolyticus = assay type: cell-based; details: 17 isolates
[4] = system: Clostridium clostridioforme; assay type: cell-based; details: 11 isolates
Clostridium dfficile = assay type: cell-based, Clostridium difficile; details: 14 isolates
Clostridium inocuum = assay type: cell-based, Clostridium innocuum; details: 11 isolates
Clostridium ramosum = assay type: cell-based; details: 10 isolates
[5] = system: Fusobacterium spp group 1; assay type: cell-based; details: Fusobacterium, 19 isolates
[6] = system: Fusobacterium spp. group 2; assay type: cell-based, Fusobacterium mortiferum, necrogenes, ulcerans; details: Fusobacterium, 12 isolates
Fusobacterium russii = assay type: cell-based; details: Fusobacterium russii; read-out: Minimal Inhibitory Concentration 90% (MIC90)
Fusobacterium varium = assay type: cell-based; details: Fusobacterium varium, 17 isolates
[7] = system: Peptostreptococcus asaccharolyticus; assay type: cell-based; details: Peptoniphilus asaccharolyticus, 11 isolates
[8] = system: Peptostreptococcus magnus; assay type: cell-based; details: 13 isolates
[9] = system: Peptostreptococcus micros; assay type: cell-based; details: 12 isolates
[10] = system: Peptostreptococcus prevotii; assay type: cell-based; details: Anaerococcus prevotii, read-out: Minimal Inhibitory Concentration 50% (MIC50); 9 isolates
[11] = system: Porphyromonas asaccharolyticus; assay type: cell-based, Porphyromonas asaccharolytica; details: Porphyromonas, 11 isolates
Porphyromonas canoris = assay type: cell-based; details: Porphyromonas canoris, 10 isolates
Porphyromonas gingivalis = assay type: cell-based; details: Porphyromonas gingivalis, 13 isolates
Porphyromonas macaccae = assay type: cell-based; details: Porphyromonas, read-out: Minimal Inhibitory Concentration 50% (MIC50); 13 isolates
Porphyromonas spp. = assay type: cell-based, Porphyromonas cangingivalis, cansulci, circumdentaria, levii; details: Porphyromonas, read-out: Minimal Inhibitory Concentration 50% (MIC50); 11 isolates
Prevotella bivia = assay type: cell-based; details: 21 isolates
[12] = system: Prevotella buccae-oris group; assay type: cell-based; details: 22 isolates
[13] = system: Prevotella heparinolytica; assay type: cell-based; details: 16 isolates
Prevotella intermedia = assay type: cell-based; details: 11 isolates
[14] = system: Prevotella melaninogenica; assay type: cell-based; details: Prevotella melaninogenica, 12 isolates
[15] = system: Prevotella denticola/loeschii group; assay type: cell-based; details: 6 isolates
Veillonella spp. = assay type: cell-based; details: 24 isolates
[16] = read-out: Minimal Inhibitory Concentration 90% (MIC90)
[17] = read-out: Minimal Inhibitory Concentration 50% (MIC50)
[18] = Clostridium, read-out: Minimal Inhibitory Concentration 90% (MIC90)

SMILES: Cc1ncc([N+](=O)[O-])n1CCO [Metronidazole]
- MIC90 [1, 16]: 32 µg/mL (≈ 187 µM)
- MIC50 [1, 17]: 16 µg/mL (≈ 93.5 µM)
- Minimal Inhibitory Concentration Range (Actinomyces israelii): 1 to 32 µg/mL
- MIC50 (Actinomyces israelii; Actinomyces israelii, read-out: Minimal Inhibitory Concentration 50% (MIC50)): 4 µg/mL (≈ 23.4 µM)
- Minimal Inhibitory Concentration Range [2]: 1 to 4 µg/mL
- MIC50 ([2]; Anaerobiospirillum thomasii, read-out: Minimal Inhibitory Concentration 50% (MIC50)): 2 µg/mL (≈ 11.7 µM)
- MIC90 ([2]; Anaerobiospirillum thomasii, read-out: Minimal Inhibitory Concentration 90% (MIC90)): 4 µg/mL (≈ 23.4 µM)
- Minimal Inhibitory Concentration Range [3]: 4 to 8 µg/mL
- MIC50 ([3]; Anaerobiospirillum succiniciproducens, read-out: Minimal Inhibitory Concentration 50% (MIC50)): 8 µg/mL (≈ 46.7 µM)
- MIC90 (Bacteroides gracilis; [16]): > 32 µg/mL
- MIC50 (Bacteroides gracilis; [17]): 0.5 µg/mL (≈ 2.92 µM)
- MIC90 (Bacteroides tectum; [16]): 0.5 µg/mL (≈ 2.92 µM)
- MIC50 (Bacteroides tectum; [17]): 0.5 µg/mL (≈ 2.92 µM)
- Minimal Inhibitory Concentration Range (Bacteroides ureolyticus): 0.06 to 2 µg/mL
- MIC90 (Bacteroides ureolyticus; Campylobacter ureolyticus, read-out: Minimal Inhibitory Concentration 90% (MIC90)): 1 µg/mL (≈ 5.84 µM)
- MIC50 (Bacteroides ureolyticus; Campylobacter ureolyticus, read-out: Minimal Inhibitory Concentration 50% (MIC50)): 0.25 µg/mL (≈ 1.46 µM)
- Minimal Inhibitory Concentration Range [4]: 0.03 to 1 µg/mL
- MIC90 [4, 18]: 0.5 µg/mL (≈ 2.92 µM)
- Minimal Inhibitory Concentration Range (Clostridium dfficile): 0.25 to 1 µg/mL
- Minimal Inhibitory Concentration Range (Clostridium inocuum): 0.5 to 2 µg/mL
- MIC90 (Clostridium inocuum; [18]): 1 µg/mL (≈ 5.84 µM)
- MIC50 (Clostridium inocuum; Clostridium, read-out: Minimal Inhibitory Concentration 50% (MIC50)): 0.5 µg/mL (≈ 2.92 µM)
- Minimal Inhibitory Concentration Range (Clostridium ramosum): 1 µg/mL
- MIC50 (Clostridium ramosum; Thomasclavelia ramosa, read-out: Minimal Inhibitory Concentration 50% (MIC50)): 1 µg/mL (≈ 5.84 µM)
- MIC90 (Clostridium ramosum; Thomasclavelia ramosa, read-out: Minimal Inhibitory Concentration 90% (MIC90)): 1 µg/mL (≈ 5.84 µM)
- MIC50 ([5]; GROUP1, read-out: Minimal Inhibitory Concentration 50% (MIC50)): 0.25 µg/mL (≈ 1.46 µM)
- MIC90 ([5]; GROUP1, read-out: Minimal Inhibitory Concentration 90% (MIC90)): 4 µg/mL (≈ 23.4 µM)
- MIC50 [6, 17]: 0.5 µg/mL (≈ 2.92 µM)
- MIC90 [6, 16]: 1 µg/mL (≈ 5.84 µM)
- MIC90 (Fusobacterium russii): 0.25 µg/mL (≈ 1.46 µM)
- MIC50 (Fusobacterium varium; [17]): 1 µg/mL (≈ 5.84 µM)
- MIC90 (Fusobacterium varium; [16]): 2 µg/mL (≈ 11.7 µM)
- MIC50 [7, 17]: 0.5 µg/mL (≈ 2.92 µM)
- MIC90 [7, 16]: 1 µg/mL (≈ 5.84 µM)
- Minimal Inhibitory Concentration Range [8]: 0.25 to 2 µg/mL
- MIC50 ([8]; Finegoldia magna, read-out: Minimal Inhibitory Concentration 50% (MIC50)): 0.5 µg/mL (≈ 2.92 µM)
- MIC90 ([8]; Finegoldia magna, read-out: Minimal Inhibitory Concentration 90% (MIC90)): 0.5 µg/mL (≈ 2.92 µM)
- Minimal Inhibitory Concentration Range [9]: 0.03 to 0.25 µg/mL
- MIC50 ([9]; Parvimonas micra, read-out: Minimal Inhibitory Concentration 50% (MIC50)): 0.25 µg/mL (≈ 1.46 µM)
- MIC90 ([9]; Parvimonas micra, read-out: Minimal Inhibitory Concentration 90% (MIC90)): 0.25 µg/mL (≈ 1.46 µM)
- MIC50 [10]: 0.5 µg/mL (≈ 2.92 µM)
- MIC50 [11, 17]: ≤ 0.015 µg/mL
- MIC90 [11, 16]: ≤ 0.015 µg/mL
- MIC50 (Porphyromonas canoris; [17]): 0.25 µg/mL (≈ 1.46 µM)
- MIC90 (Porphyromonas canoris; [16]): 0.25 µg/mL (≈ 1.46 µM)
- MIC50 (Porphyromonas gingivalis; [17]): ≤ 0.015 µg/mL
- MIC90 (Porphyromonas gingivalis; [16]): 0.03 µg/mL (≈ 0.175 µM)
- MIC50 (Porphyromonas macaccae): 0.06 µg/mL (≈ 0.351 µM)
- MIC50 (Porphyromonas spp.): 0.03 µg/mL (≈ 0.175 µM)
- Minimal Inhibitory Concentration Range (Prevotella bivia): 0.5 to 4 µg/mL
- MIC90 (Prevotella bivia; Prevotella bivia, read-out: Minimal Inhibitory Concentration 90% (MIC90)): 4 µg/mL (≈ 23.4 µM)
- MIC50 (Prevotella bivia; Prevotella bivia, read-out: Minimal Inhibitory Concentration 50% (MIC50)): 2 µg/mL (≈ 11.7 µM)
- Minimal Inhibitory Concentration Range [12]: 0.5 to 4 µg/mL
- MIC90 ([12]; Prevotella, read-out: Minimal Inhibitory Concentration 90% (MIC90)): 2 µg/mL (≈ 11.7 µM)
- MIC50 ([12]; Prevotella, read-out: Minimal Inhibitory Concentration 50% (MIC50)): 1 µg/mL (≈ 5.84 µM)
- Minimal Inhibitory Concentration Range [13]: 0.06 to 1 µg/mL
- MIC90 ([13]; Prevotella heparinolytica, read-out: Minimal Inhibitory Concentration 90% (MIC90)): 1 µg/mL (≈ 5.84 µM)
- MIC50 ([13]; Prevotella heparinolytica, read-out: Minimal Inhibitory Concentration 50% (MIC50)): 0.5 µg/mL (≈ 2.92 µM)
- Minimal Inhibitory Concentration Range (Prevotella intermedia): 0.03 to 1 µg/mL
- MIC90 (Prevotella intermedia; Prevotella intermedia, read-out: Minimal Inhibitory Concentration 90% (MIC90)): 1 µg/mL (≈ 5.84 µM)
- MIC50 (Prevotella intermedia; Prevotella intermedia, read-out: Minimal Inhibitory Concentration 50% (MIC50)): 0.5 µg/mL (≈ 2.92 µM)
- MIC90 [14, 16]: 1 µg/mL (≈ 5.84 µM)
- MIC50 [14, 17]: 0.5 µg/mL (≈ 2.92 µM)
- Minimal Inhibitory Concentration Range [15]: 0.5 to 1 µg/mL
- MIC50 ([15]; Prevotella denticola, read-out: Minimal Inhibitory Concentration 50% (MIC50)): 1 µg/mL (≈ 5.84 µM)
- Minimal Inhibitory Concentration Range (Veillonella spp.): 0.25 to 2 µg/mL
- MIC90 (Veillonella spp.; Veillonella, read-out: Minimal Inhibitory Concentration 90% (MIC90)): 2 µg/mL (≈ 11.7 µM)
- MIC50 (Veillonella spp.; Veillonella, read-out: Minimal Inhibitory Concentration 50% (MIC50)): 1 µg/mL (≈ 5.84 µM)
